Measured values as given in PubChem BioAssay AID248 (DTP/NCI, 2004).
Values joined by “and” are separate entries in the source; they are usually repeats but may differ in a detail not shown here. Equal values may be shown once. Toxic doses and inconclusive results are not listed. Cut-off read from the data, not from the text of the source: active = T/C of 150% or more; inactive = T/C below 125%.

System: L1210 leukemia ip in BDF1 mice, survival T/C
Assay: NCI In Vivo Anticancer Drug Screen. Data for tumor model L1210 Leukemia (intraperitoneal) in B6D2F1 (BDF1) mice
Settings: endpoint: mean survival time, higher = longer survival
Method in brief: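 In this screen, tumor-bearing mice given compound are compared to those given vehicle, and their survival values are reported as a treated-to-control quotient.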

[1] = dose: 100.0 mg/kg/injection, schedule: Q01DX009 (ip), vehicle: Klucel (hydroxypropylcellulose) (HPC)
[2] = dose: 100.0 mg/kg/injection, schedule: Q04DX003 (ip), vehicle: Klucel (hydroxypropylcellulose) (HPC)
[3] = dose: 200.0 mg/kg/injection, schedule: Q01DX009 (ip), vehicle: Klucel (hydroxypropylcellulose) (HPC)
[4] = dose: 200.0 mg/kg/injection, schedule: Q04DX003 (ip), vehicle: Klucel (hydroxypropylcellulose) (HPC)
[5] = dose: 400.0 mg/kg/injection, schedule: Q01DX009 (ip), vehicle: Klucel (hydroxypropylcellulose) (HPC)
[6] = dose: 400.0 mg/kg/injection, schedule: Q04DX003 (ip), vehicle: Klucel (hydroxypropylcellulose) (HPC)
[7] = dose: 50.0 mg/kg/injection, schedule: Q01DX001 (ip), vehicle: Klucel (hydroxypropylcellulose) (HPC)
[8] = dose: 100.0 mg/kg/injection, schedule: Q01DX001 (ip), vehicle: Klucel (hydroxypropylcellulose) (HPC)
[9] = dose: 200.0 mg/kg/injection, schedule: Q01DX001 (ip), vehicle: Klucel (hydroxypropylcellulose) (HPC)
[10] = dose: 100.0 mg/kg/injection, schedule: Q01DX009 (ip), vehicle: saline with Tween-80
[11] = dose: 100.0 mg/kg/injection, schedule: Q04DX002 (ip), vehicle: Klucel (hydroxypropylcellulose) (HPC)
[12] = dose: 100.0 mg/kg/injection, schedule: Q04DX002 (ip), vehicle: saline with Tween-80
[13] = dose: 100.0 mg/kg/injection, schedule: Q04DX003 (ip), vehicle: saline with Tween-80
[14] = dose: 200.0 mg/kg/injection, schedule: Q01DX009 (ip), vehicle: saline with Tween-80
[15] = dose: 200.0 mg/kg/injection, schedule: Q04DX002 (ip), vehicle: Klucel (hydroxypropylcellulose) (HPC)
[16] = dose: 200.0 mg/kg/injection, schedule: Q04DX002 (ip), vehicle: saline with Tween-80
[17] = dose: 200.0 mg/kg/injection, schedule: Q04DX003 (ip), vehicle: saline with Tween-80
[18] = dose: 400.0 mg/kg/injection, schedule: Q01DX009 (ip), vehicle: saline with Tween-80
[19] = dose: 400.0 mg/kg/injection, schedule: Q04DX002 (ip), vehicle: Klucel (hydroxypropylcellulose) (HPC)
[20] = dose: 400.0 mg/kg/injection, schedule: Q04DX002 (ip), vehicle: saline with Tween-80
[21] = dose: 400.0 mg/kg/injection, schedule: Q04DX003 (ip), vehicle: saline with Tween-80
[22] = dose: 100.0 mg/kg/injection, schedule: Q01DX001 (ip), vehicle: carboxymethylcellulose (CMC)
[23] = dose: 200.0 mg/kg/injection, schedule: Q01DX001 (ip), vehicle: carboxymethylcellulose (CMC)
[24] = dose: 400.0 mg/kg/injection, schedule: Q01DX001 (ip), vehicle: carboxymethylcellulose (CMC)

Measured: T/C

O=C1Nc2ccc(Cl)cc2C(c2ccccc2)=NC1O (stereo not drawn)
inactive: dose: 25.0 mg/kg/injection, schedule: Q01DX009 (ip), vehicle: Klucel (hydroxypropylcellulose) (HPC) 103 % of control | dose: 25.0 mg/kg/injection, schedule: Q04DX003 (ip), vehicle: Klucel (hydroxypropylcellulose) (HPC) 98 % of control | dose: 50.0 mg/kg/injection, schedule: Q01DX009 (ip), vehicle: Klucel (hydroxypropylcellulose) (HPC) 101 % of control | dose: 50.0 mg/kg/injection, schedule: Q04DX003 (ip), vehicle: Klucel (hydroxypropylcellulose) (HPC) 104 % of control | [1] 98 % of control | [2] 104 % of control | [3] 107 % of control | [4] 114 % of control | [5] 91 % of control | [6] 111 % of control

COS(=O)c1ccccc1C(=O)NOCc1ccccc1 (stereo not drawn)
inactive: [7] 103 % of control | [8] 100 % of control | [9] 107 % of control

O=C(NCCF)NC1C=CCCC1 (stereo not drawn)
inactive: dose: 75.0 mg/kg/injection, schedule: Q01DX001 (ip), vehicle: other 100 % of control | dose: 150.0 mg/kg/injection, schedule: Q01DX001 (ip), vehicle: other 95 % of control | dose: 300.0 mg/kg/injection, schedule: Q01DX001 (ip), vehicle: other 94 % of control

O=NN1C(=O)C2CC3CC(C2)CC1C3
inactive: dose: 3.12 mg/kg/injection, schedule: Q01DX009 (ip), vehicle: saline with Tween-80 91 % of control | dose: 6.25 mg/kg/injection, schedule: Q01DX009 (ip), vehicle: saline with Tween-80 107 % of control | dose: 12.5 mg/kg/injection, schedule: Q01DX009 (ip), vehicle: saline with Tween-80 96 % of control

NC(N)=N/N=C/Cc1ccccc1
inactive: dose: 62.5 mg/kg/injection, schedule: Q01DX Z (ip), vehicle: saline 94 % of control

CCOC(=O)C(CCc1cc2ccccc2[nH]1)(C(=O)OCC)N1C(=O)c2ccccc2C1=O
inactive: [1] 94 % of control | [3] 89 % of control | [5] 89 % of control

C/C=C\c1ccc(OC(=O)NCCC)c(OC)c1
inactive: [10] 95 % of control and 97 % of control | [11] 100 % of control | [12] 102 % of control and 106 % of control | [13] 97 % of control | [14] 95 % of control and 97 % of control | [15] 113 % of control | [16] 105 % of control and 112 % of control | [17] 87 % of control | [18] 97 % of control | [19] 95 % of control | [20] 94 % of control and 106 % of control | [21] 102 % of control

CCN(CC)c1cc[c]([Hg][O]C(C)=O)cc1
inactive: dose: 1.56 mg/kg/injection, schedule: Q04DX003 (ip), vehicle: saline with Tween-80 92 % of control | dose: 3.13 mg/kg/injection, schedule: Q04DX003 (ip), vehicle: saline with Tween-80 90 % of control | dose: 6.25 mg/kg/injection, schedule: Q04DX003 (ip), vehicle: saline with Tween-80 93 % of control and 94 % of control | dose: 12.5 mg/kg/injection, schedule: Q04DX003 (ip), vehicle: saline with Tween-80 93 % of control

CC(CCCN(CCCl)CCCl)Nc1ccnc2cc(Cl)ccc12 (stereo not drawn)
inactive: dose: 5.0 mg/kg/injection, schedule: Q01DX001 (ip), vehicle: saline 119 % of control | dose: 10.0 mg/kg/injection, schedule: Q01DX001 (ip), vehicle: saline 105 % of control

CCn1cc([N+](=O)[O-])ccc1=O
inactive: [1] 104 % of control | [2] 98 % of control | [3] 101 % of control | [4] 96 % of control | [5] 98 % of control | [6] 107 % of control

CCCCCCCCCCCCCCCCOc1ccc(NC(N)=S)cc1
inactive: dose: 75.0 mg/kg/injection, schedule: Q04DX003 (ip), vehicle: Klucel (hydroxypropylcellulose) (HPC) 101 % of control | [8] 96 % of control | dose: 150.0 mg/kg/injection, schedule: Q04DX003 (ip), vehicle: Klucel (hydroxypropylcellulose) (HPC) 88 % of control | [9] 97 % of control | dose: 300.0 mg/kg/injection, schedule: Q04DX003 (ip), vehicle: Klucel (hydroxypropylcellulose) (HPC) 89 % of control | dose: 400.0 mg/kg/injection, schedule: Q01DX001 (ip), vehicle: Klucel (hydroxypropylcellulose) (HPC) 93 % of control

COC(=O)CCNc1ccccc1C(=O)OC
inactive: dose: 50.0 mg/kg/injection, schedule: Q01DX001 (ip), vehicle: carboxymethylcellulose (CMC) 100 % of control | [22] 107 % of control | [23] 113 % of control | [24] 100 % of control

O=c1[nH]nc(-c2ccc3c(c2)Cc2ccccc2-3)c2ccccc12
inactive: [22] 100 % of control | [23] 94 % of control | [24] 97 % of control

COCCNC(=O)Nc1cccc2c1CCCC2
inactive: [10] 97 % of control | [14] 99 % of control | [18] 103 % of control

CCCCNC(=O)c1ccc(C(=O)c2ccc(C(=O)NCCCC)c(C(=O)O)c2)cc1C(=O)O
inactive: [11] 90 % of control | [15] 87 % of control | [19] 87 % of control

Cc1cccc([N+](=O)[O-])c1-c1c(C)cccc1[N+](=O)[O-]
inactive: [7] 102 % of control | [8] 102 % of control | [9] 96 % of control

CCCCNC(=S)SCCC(=O)O
inactive: [12] 100 % of control | [16] 104 % of control | [20] 102 % of control

O=C(Cl)C1CCCCC1
inactive: dose: 6.25 mg/kg/injection, schedule: Q01DX015 (ip), vehicle: saline 93 % of control | dose: 12.5 mg/kg/injection, schedule: Q01DX015 (ip), vehicle: saline 89 % of control | dose: 25.0 mg/kg/injection, schedule: Q01DX015 (ip), vehicle: saline 93 % of control and 96 % of control | dose: 50.0 mg/kg/injection, schedule: Q01DX015 (ip), vehicle: saline 90 % of control

O=NN(CCCl)C(=O)Nc1ccccc1
inactive: dose: 2.0 mg/kg/injection, schedule: Q01DX Z (ip), vehicle: carboxymethylcellulose (CMC) 114 % of control | dose: 10.0 mg/kg/injection, schedule: Q01DX Z (ip), vehicle: carboxymethylcellulose (CMC) 102 % of control | dose: 14.0 mg/kg/injection, schedule: Q01DX Z (ip), vehicle: carboxymethylcellulose (CMC) 102 % of control | dose: 18.0 mg/kg/injection, schedule: Q01DX001 (ip), vehicle: carboxymethylcellulose (CMC) 123 % of control | dose: 25.0 mg/kg/injection, schedule: Q01DX Z (ip), vehicle: carboxymethylcellulose (CMC) 107 % of control and 89 % of control | dose: 72.0 mg/kg/injection, schedule: Q01DX001 (ip), vehicle: carboxymethylcellulose (CMC) 114 % of control
active: dose: 4.0 mg/kg/injection, schedule: Q01DX Z (ip), vehicle: carboxymethylcellulose (CMC) 169 % of control | dose: 6.0 mg/kg/injection, schedule: Q01DX Z (ip), vehicle: carboxymethylcellulose (CMC) 160 % of control and 213 % of control | dose: 18.0 mg/kg/injection, schedule: Q01DX Z (ip), vehicle: carboxymethylcellulose (CMC) 174 % of control | dose: 20.0 mg/kg/injection, schedule: Q01DX Z (ip), vehicle: carboxymethylcellulose (CMC) 166 % of control

O=C(O)CCC(NC(=O)c1ccc(Cc2ccc(NC(=O)OCc3ccccc3)cc2)cc1)C(=O)O (stereo not drawn)
inactive: [1] 96 % of control | [2] 97 % of control | [3] 95 % of control | [4] 94 % of control | [5] 93 % of control | [6] 103 % of control

O=C1c2ccccc2C(=O)c2c(Nc3ccccc3)ccc(NCCO)c21
inactive: dose: 100.0 mg/kg/injection, schedule: Q01DX001 (ip), vehicle: saline 102 % of control | dose: 200.0 mg/kg/injection, schedule: Q01DX001 (ip), vehicle: saline 100 % of control | dose: 400.0 mg/kg/injection, schedule: Q01DX001 (ip), vehicle: saline 97 % of control

CC(C)(C)NC(=O)CCC(CC(=O)NC(C)(C)C)C1([N+](=O)[O-])CCCCC1 (stereo not drawn)
inactive: [13] 92 % of control | [17] 91 % of control | [21] 86 % of control
